# Reference: patent US11474106B2, “Methods for cytotoxic chemotherapy-based predictive assays” (ACCELERATED MEDICAL DIAGNOSTICS, INC., priority 2015, dated 2022)
# Tests used:
# 5637 [1] = test: MTT assay (IC50); type: cell-based, human; conditions: Homo sapiens, 72 hours
# Procedure: Thus, we measured the IC50 of the six NSCLC cell lines from Example 2 to both cisplatin and carboplatin to determine if the sensitivity of these six NSCLC cell lines to the two drugs are correlated.
# (§1) The cell lines were purchased from the American Type Culture Collection (ATCC, Manassas, Va.) and cultured in the recommended media.
# (§2) Drug-DNA adduct formation and repair was measured by accelerator mass spectrometry.
# (§3) These two cell lines were also cultured with a range of concentrations of cisplatin, carboplatin, gemcitabine, doxorubicin, methotrexate and vinblastine for 72 hours to determine IC50 for these other drugs (FIG. 16C). These drugs were chosen because of their frequent use in the treatment of bladder cancer.
# 5637R [2] = test: MTT assay (IC50); type: cell-based; conditions: Homo sapiens, 72 hours
# Procedure: as §2
# To confirm that 5637 was the original ATCC cell line, and that 5637R originated from the parental 5637 cell line, both cultures were sent to the ATCC Cell Line Authentication Service for cell verification per the ATCC protocol. More specifically, fifteen short tandem repeat (STR) loci plus the gender determining locus, amelogenin, were amplified using the commercially available PowerPlex® 16HS Kit from Promega.
# as §3
# [3] = cited from earlier work
# [4] = type: physicochemical; conditions: 0.5 mg/mL in water
# Procedure: Radiolabeled carboplatin containing C^14 carbon atoms in the cyclobutane dicarboxylic acid group was formulated for human use as a sterile, pyrogen free solution at 5 mg/mL in water.
# cancer patients = test: Patient toxicity related to the microdose; type: in vivo, human; conditions: IV microdose, 2.0×10^6 DPM/kg
# Procedure: Radiolabeled carboplatin containing C^14 carbon atoms in the cyclobutane dicarboxylic acid group was formulated for human use as a sterile, pyrogen free solution at 5 mg/mL in water. […] Microdoses of the [^14C]Carboplatin were administered to human cancer patients as a diagnostic reagent, followed by full dose platinum-based chemotherapy and evaluation of response. Within four weeks of the [^14C]carboplatin microdose, these patients received standard of care chemotherapy for their disease, which included either carboplatin or cisplatin. […] Toxicity of the [^14C]carboplatin diagnostic reagent administered as a microdose was assessed using Common Terminology Criteria for Adverse Events (CTCAE).
# The dose of carboplatin in the diagnostic microdose was chosen to be sub-toxic and non-therapeutic, to minimize patient chemical and radiation exposure, and to result in AMS measurable carboplatin-DNA monoadducts. Nineteen patients have been administered at least one microdose of [^14C]carboplatin via IV infusion as a diagnostic reagent. Patient toxicity related to the microdose was monitored from the time of IV microdose until the patients received their first chemotherapy.
# [5] = tested on: five bladder cancer cell lines (5637, T24, TCCSUP, HT1197, and J82); test: Oxaliplatin-DNA adducts by AMS in cell culture; type: cell-based
# Procedure: as §1
# Cells were seeded in 60-mm dishes at a density of 1×10^6 cells/dish and allowed to attach overnight in a 37° C. humidified atmosphere containing 5% CO2. […] The cells were then washed twice with phosphate-buffered solution (PBS) and maintained thereafter with oxaliplatin-free culture media. DNA was harvested at hours 0, 2, 4, 8, 24 hours using the modified Wizard procedure described previously. Ten micrograms of DNA per sample was converted to graphite and measured by AMS for ^14C quantification. Triplicate sets of AMS experiments were performed and the data was plotted as time vs oxaliplatin-DNA adducts per 10^8 nt. […] Oxaliplatin-DNA monoadducts could be detected in all cell lines at all time points. […] Therefore, drug-DNA damage from microdoses of oxaliplatin are predictive of the extent of DNA modification caused by the therapeutic dose in cell culture.
# 5637R [6] = test: Oxaliplatin-DNA adduct formation and repair by AMS; type: cell-based, human
# Procedure: (§4) To characterize the oxaliplatin-DNA adduct frequency in these cell lines, cells from each cell line were seeded in 60-mm dishes at a density of 1×10^6 cells/dish and allowed to attach overnight in a 37° C. humidified atmosphere containing 5% CO2. […] The cells were then washed twice with phosphate-buffered solution (PBS) and maintained thereafter with oxaliplatin-free culture media. DNA was harvested at hours 0, 2, 4, 8, 24, 28 and 48 hours using a Promega Wizard DNA Purification Kit. Ten micrograms of DNA per sample was converted to graphite and measured by AMS for ^14C quantification. Triplicate sets of AMS experiments were performed and the data was plotted as time vs oxaliplatin-DNA adducts per 10^8 nt.
# (§5) Statistics were calculated with n=3 for each cell line. ANOVA analysis of IC50 and AUC data were based on a one-sided t-test.
# 5637 [7] = test: Oxaliplatin-DNA adduct formation and repair by AMS; type: cell-based, human
# Procedure: as §4, §5
# [8] = Human plasma pharmacokinetics of oxaliplatin microdose; type: in vivo; conditions: metastatic breast cancer patient, IV microdose
# Procedure: Single agent oxaliplatin chemotherapy is given by IV at a personalized dose of 130 mg/m^2 of body surface area using the Du Bois and Du Bois formula (Du Bois, D., and E. F. Du Bois. “A formula to estimate the approximate surface area if height and weight be known. 1916.” Nutrition (Burbank, Los Angeles County, Calif.) 5.5 (1989): 303).
# Radiolabeled oxaliplatin containing C^14 carbon atoms in the cyclohexane ring was formulated for human use as a sterile, pyrogen free solution at 0.5 mg/mL in water. […] Unlabeled oxaliplatin and [^14C]oxaliplatin were mixed just before dosing to achieve the required microdose, and injected through the peripheral vein at one arm. Peripheral blood specimens were drawn into BD Vacutainer CPT' tubes with sodium heparin from the other arm at specific time points before and after the administration of the microdose. Plasma samples collected at −5 min, 5 min, 15 min, 30 min, 2 h, 4 h, 8 h, 24 h, and 48 h post microdose injection were analyzed by liquid scintillation counting (FIG. 17A).
# PBMC = test: Microdose-induced oxaliplatin-DNA adduct frequency by AMS; type: in vivo, human
# Procedure: The plasma samples were additionally processed to isolate PBMC, and the DNA was extracted and analyzed using AMS to calculate the oxaliplatin-DNA adduct frequency (both monoadducts and diadducts combined) (FIG. 17B). […] These adduct levels then decrease substantially out to 48 hours post microdosing. […] Overall, the plasma PK and time course of oxaliplatin-DNA adduct formation and repair in PBMC allowed determination of the best time to dose patients prior to biopsy in order to maximize the oxaliplatin-DNA adduct formation, allow for repair in those patients with high repair capacity, minimize the risk of radioactive contamination of PBMC and tumor samples, and also minimize the risk of radioactive contamination of the operating room by blood-borne radiocarbon.
# Plasma samples were collected, filtered, and counted by liquid scintillation counting to determine plasma oxaliplatin levels. […] The range of microdose-induced adduct levels (frequencies) for the three colorectal patients was 0.1-6 adducts per 10^8 nt.
# A549 tumor xenograph = test: Tumor response to therapeutic carboplatin in xenograft; type: in vivo, nude mice; conditions: single IV 37.3 mg/kg, 14 days
# Text: (§6) Xenograft mouse tumors consisting of one carboplatin resistant and one sensitive tumor type were established for in vivo evaluation of carboplatin-DNA monoadduct formation and repair in tumor tissue and for in vivo evaluation of tumor response to therapeutic dosing with carboplatin. Tumor xenografts were established in 1-2 month old nude mice by injecting approximately one million cells into the left and right flanks, and allowed to develop tumors of less than 1 cm^3 over approximately 4 weeks prior to DNA adduct studies. Mice bearing resistant and sensitive tumors were exposed to either a microdose or therapeutic dose of carboplatin by tail vein injection. DNA isolated from tumor tissue was evaluated for carboplatin-DNA monoadduct frequency levels as a function of time. For tumor response, mice bearing resistant and sensitive tumors were therapeutically treated with a single IV injection of 37.3 mg/kg of carboplatin and then examined for tumor growth as assessed by measuring palpable tumors with a caliper and calculating tumor volume.
# (§7) Mice xenografted with sensitive (H232A) and resistant (A549) lung cancer cell lines were infused with a therapeutic dose of carboplatin to assess tumor response. The tumors were measured daily over 14 days post infusion (FIG. 10C). Tumor size was normalized as the ratio of tumor diameter to the tumor diameter measured on day 0 (no change=1.0). […]
# H23 2A tumor xenograph = test: as above; type: in vivo, nude mice; conditions: H23 2A xenograph; single IV 37.3 mg/kg; 14 days
# Text: as §6, §7
# [9] = Human plasma pharmacokinetics of carboplatin microdose, liquid scintillation counting; type: in vivo; conditions: four patients
# Procedure: Although the pharmacokinetics of carboplatin are well known for therapeutic doses, it is not known if human pharmacokinetic parameters obtained using a microdose of carboplatin will track those obtained with therapeutic carboplatin dosing. […] This is a requirement for this diagnostic assay to be predictive of response to a therapeutic dose. The pharmacokinetics of microdose carboplatin were also measured in several different patients along with the kinetics of carboplatin-DNA monoadduct formation and repair in PBMC to establish that 24 hours post administration of a microdose of carboplatin is an appropriate time for sampling a patient for this predictive diagnostic assay.
# Two of the bladder cancer patients received two doses of [^14C]carboplatin, including the initial diagnostic microdose and a second microdose at the time of full therapeutic dose. This allowed us to compare the pharmacokinetics of carboplatin in plasma after both microdosing and therapeutic dosing (FIG. 11A). […] Therefore, microdosing and therapeutic dosing yield similar carboplatin pharmacokinetics in human patients.
# The pharmacokinetics of carboplatin administered as a microdose was assessed in four patients (two with bladder cancer and two with NSLC) for the purpose of comparing interpatient variability and establishing the optimum time point for tumor biopsy sample acquisition.
# [10] = 5637 (parental, Example 11), MTT
# [11] = 24 hour culture without oxaliplatin
smiles,measurement,setting,value
CN(Cc1cnc2nc(N)nc(N)c2n1)c1ccc(C(=O)N[C@@H](CCC(=O)O)C(=O)O)cc1 [methotrexate],IC50,5637 [1]; [10],2010 nM
same,IC50,5637R [2]; MTT,1240 nM
COc1cccc2c1C(=O)c1c(O)c3c(c(O)c1C2=O)C[C@@](O)(C(=O)CO)C[C@@H]3O[C@H]1C[C@H](N)[C@H](O)[C@H](C)O1 [doxorubicin],IC50,5637 [1]; [10],290 nM
same,IC50,5637R [2]; MTT,270 nM
"O=C1[O][Pt]2([NH][C@@H]3CCCC[C@H]3[NH]2)[O]C1=O [oxaliplatin, reference compound]",Cmax,"[3]; therapeutically treated patients, read-out: plasma Cmax",~10 µM
N[C@@H]1CCCC[14C@H]1N.O=C([O-])C(=O)[O-].[Pt+2] [[^14C]oxaliplatin],stability to freeze/thaw,[4],stable to free/thaw with no observed precipitation
same,loss of radiopurity per year,[4]; storage at −20° C.,< 2%
same,tolerability of the radiolabeled microdose,cancer patients,well tolerated
same,DNA damage concentrations (total oxaliplatin-DNA adducts),"[5]; microdose, 0.1 μM oxaliplatin for 4 hours",50-100 oxaliplatin-DNA adducts per 10^8 nt
same,DNA damage concentrations (total oxaliplatin-DNA adducts),"[5]; therapeutic dose, 10 μM oxaliplatin for 4 hours","5,000-10,000 oxaliplatin-DNA adducts per 10^8 nt"
same,oxaliplatin-DNA adducts at 24 hours,5637R [6]; 10 μM for 24 hours,259.2±37.3 adducts per 10^8 nucleotide
same,repair rate,5637R [6]; [11],3.48±0.15 adducts per 10^8 nucleotide-hour
same,area under curve (AUC) of oxaliplatin-DNA adducts,5637R [6]; 48 hour study time period,"9,426±2457 adducts per 10^8 nucleotide-hour"
same,oxaliplatin-DNA adducts at 24 hours,5637 [7]; 10 μM for 24 hours,710.0±32.2 adducts per 10^8 nucleotide
same,repair rate,5637 [7]; [11],1.34±0.30 adducts per 10^8 nucleotides-hour
same,area under curve (AUC) of oxaliplatin-DNA adducts,5637 [7]; 48 hour study time period,"27,720±2,985 adducts per 10^8 nucleotide-hour"
same,"T1/2 (α), first (fast) phase",[8],13.3 min
same,maximum oxaliplatin-DNA adducts in PBMC,"PBMC; metastatic breast cancer patient, microdose, first 4 hours",8 adducts per 10^8 nt
same,range of microdose-induced adduct levels (frequencies),"PBMC; three colorectal patients, PBMC",0.1-6 adducts per 10^8 nt
CC[C@]1(O)C[C@@H]2CN(CCc3c([nH]c4ccccc34)[C@@](C(=O)OC)(c3cc4c(cc3OC)N(C)[C@H]3[C@@](O)(C(=O)OC)[C@H](OC(C)=O)[C@]5(CC)C=CCN6CC[C@]43[C@@H]65)C2)C1 [vinblastine],IC50,5637 [1]; 5637,0.6 nM
same,IC50,5637R [2],0.61 nM
N.N.O=C([O-])C1(C(=O)[O-])CCC1.[Pt+2] [carboplatin],tumor response (tumor growth),A549 tumor xenograph,continued to grow
same,tumor response (tumor growth),H23 2A tumor xenograph,did not display any growth
same,time to clearance from the blood,[9],≤ 24 h
same,in vivo half-life in patients,[3]; in vivo,78 to 360 min
Nc1ccn([C@@H]2O[C@H](CO)[C@@H](O)C2(F)F)c(=O)n1 [gemcitabine],IC50,5637 [1]; [10],120 nM
same,IC50,5637R [2]; MTT,1440 nM
